Article PMC6337497 (International Journal of Molecular Sciences, 2018)

Key:
[1] = test system: DU145 cells; assay: Cell cycle analysis (propidium iodide), DU145; type: cell-based, Human; conditions: DU145, 48 h at GI50 dose
Protocol: (§1) Cells were harvested after 48 h drug treatments and DNA distribution analysis of cells stained with propidium iodide solution (propidium iodide 25 µg/mL, Na-Citrate 3.4 mM, NaCl 9.65 mM, NP-40 0.03%) was performed by an Epics cytofluorimeter (Beckman Coulter Srl, Milan, Italy).

[2] = test system: HCT116 cells; assay: MTT cell viability assay, HCT116; type: cell-based, Human; conditions: HCT116, 48 h
Protocol: Human prostate cancer PC3 cells (CRL 1435, ATCC, Manassas, VA, USA) were grown in Ham’s F12 nutrient medium, human prostate cancer DU145 cells (HTB-81, ATCC, Manassas, VA, USA) in RPMI 1640 medium and human colorectal carcinoma HCT116 cells (CCL-247, ATCC, Manassas, VA, USA) in IMDM medium. All media (Biowest, Nuaillé, France) were supplemented with 10% Foetal Bovine Serum (Gibco-Thermo Fisher Scientific, Waltham, MA, USA), L-glutamine, penicillin, and streptomycin (Euroclone, Milan, Italy), and grown at 37 °C in a humidified 5% CO2 atmosphere. The inhibition of cell proliferation was measured by colorimetric MTT assay [51] and the concentration at which cellular growth is inhibited by 50% (GI50) was determined. Briefly, cells were seeded into 96-well plates at a density of 2000 cells/well. The following day, cells were treated with the indicated compounds and analyzed for cell viability after 48 h. 5 mg/mL thiazolyl blue tetrazolium bromide (Sigma-Aldrich, St. Louis, MO, USA) was added to each well at a final concentration of 0.5 mg/mL and the plates were incubated at 37 °C for 2 h. Medium containing unconverted MTT was removed and 100 µL MTT solvent (4 mM HCl, 0.1% NP-40 in isopropyl alcohol) was added to each well. The plate was gently rotated on an orbital shaker in the dark for 15 min, before the measurements of absorbance at 570 nm. […]

[3] = Lipophilicity (data not shown); type: physicochemical
[4] = test system: DU145 cells; assay: RT-qPCR gene transcription, DU145; type: cell-based, Human; conditions: DU145, 48 h at GI50 dose
Protocol: (§2) Data are presented as relative transcript levels, normalized with RPL21 housekeeping gene, with DMSO levels arbitrarily set at 1.
(§3) RNA was extracted from cells using RNeasy kit (Qiagen, Venlo, The Netherlands) and reversed transcribed with a Moloney murine leukemia virus reverse transcriptase (Promega, Madison, WI, USA). Quantitative real-time PCRs were performed using SsoAdvanced Universal SYBR Green Supermix (Bio-Rad, Hercules, CA, USA) on a Bio-Rad CFX Connect™ real-time PCR detection system. Primer sequences are available upon request. The housekeeping gene Rpl21 was used as a loading control. The relative fold change enrichments of real-time PCR samples were calculated with the formula 2^−(ΔΔCt), where −(ΔΔCt) = −[(Ct target − Ct Rpl21)treated − (Ct target − Ct Rpl21)DMSO].

[5] = test system: PC3 cells; assay: Cell cycle analysis (propidium iodide), PC3; type: cell-based, Human; conditions: PC3, 48 h at GI50 dose
Protocol: as §1

[6] = test system: DU145 cells; assay: Anchorage-dependent colony formation assay, DU145; type: cell-based, Human; conditions: DU145, 10 days, different doses
Protocol: (§4) For anchorage-dependent colony formation assay, 1000 PC3 or 500 DU145 cells were plated in 6-well plates. […] After 7–10 days, the plates were washed, fixed and stained with 0.5% crystal violet solution in 20% Methanol. […] Colony numbers were normalized as a percentage of colonies formed following DMSO treatment.

[7] = test system: PC3 cells; assay: Anchorage-dependent colony formation assay, PC3; type: cell-based, Human
Protocol: as §4

[8] = test system: PC3 cells; assay: Anchorage-independent colony formation assay, PC3; type: cell-based, Human; conditions: PC3, 5 µM
Protocol: (§5) For anchorage-independent colony formation assay, 0.6% low melt agarose gel with 10% FBS in appropriate complete cell growth medium was prepared and added to the wells of a twelve-well culture dish as a base agar. […] PC3 and DU145 cells were allowed to grow at 37 °C for three weeks (PC3) or five weeks (DU145). The effect of the drugs on anchorage-independent growth was determined by colony growth. Colonies were stained with 0.07% crystal violet and formed colonies were imaged. The numbers of colonies with radius ≥ 7 pixels were counted with automated colony counter (OpenCFU 3.9.0) and average number of colonies was plotted against drug concentrations. Colony numbers were normalized as a percentage of colonies formed following DMSO treatment.

[9] = test system: DU145 cells; assay: MTT cell viability assay, DU145; type: cell-based, Human; conditions: Homo sapiens, DU-145; 48 h treatment, MTT
Protocol: Human prostate cancer PC3 cells (CRL 1435, ATCC, Manassas, VA, USA) were grown in Ham’s F12 nutrient medium, human prostate cancer DU145 cells (HTB-81, ATCC, Manassas, VA, USA) in RPMI 1640 medium and human colorectal carcinoma HCT116 cells (CCL-247, ATCC, Manassas, VA, USA) in IMDM medium. All media (Biowest, Nuaillé, France) were supplemented with 10% Foetal Bovine Serum (Gibco-Thermo Fisher Scientific, Waltham, MA, USA), L-glutamine, penicillin, and streptomycin (Euroclone, Milan, Italy), and grown at 37 °C in a humidified 5% CO2 atmosphere.
DMSO was used as control.
The inhibition of cell proliferation was measured by colorimetric MTT assay and the concentration at which cellular growth is inhibited by 50% (GI50) was determined. Briefly, cells were seeded into 96-well plates at a density of 2000 cells/well. The following day, cells were treated with the indicated compounds and analyzed for cell viability after 48 h. 5 mg/mL thiazolyl blue tetrazolium bromide (Sigma-Aldrich, St. Louis, MO, USA) was added to each well at a final concentration of 0.5 mg/mL and the plates were incubated at 37 °C for 2 h. Medium containing unconverted MTT was removed and 100 µL MTT solvent (4 mM HCl, 0.1% NP-40 in isopropyl alcohol) was added to each well. The plate was gently rotated on an orbital shaker in the dark for 15 min, before the measurements of absorbance at 570 nm. The viability of untreated cells was arbitrarily set at 100%.

[10] = test system: PC3 cells; assay: RT-qPCR gene transcription, PC3; type: cell-based, Human; conditions: PC3, 48 h at GI50 dose
Protocol: as §2, §3

[11] = test system: DU145 cells; assay: Anchorage-independent colony formation assay, DU145; type: cell-based, Human; conditions: DU145, 10 µM
Protocol: as §5

[12] = compared to curcumin and control cells

Which “effect on cell cycle distribution (in words)” value [1] does the source give for `COc1cc(/C=C/C(=O)C(CCCN2C(=O)c3ccccc3C2=O)C(=O)/C=C/c2ccc(O)c(OC)c2)ccc1O` [K3F21] here?
The value was “both arrested the G2/M progression and induced cell death”.

And the “anti-proliferative activity compared to the other derivatives” value [2]?
Its value is “most active molecule”.

What about the lipophilicity [3] of the same compound?
The lipophilicity was “high”.

What about the EGFR expression [4] of the same compound?
The EGFR expression was “reduced”.

What about the Noxa transcription [4] of the same compound?
Its Noxa transcription is “induced”.

And the Puma transcription [4]?
The Puma transcription was “increased exclusively following K3F21 administration”.

What about the “transcription of CDK inhibitors p21 and p27” value [4] of the same compound?
The value was “raised only after K3F21 treatment”.

And the “transcription of Cdc2, CyclinB1, CyclinB2, and CyclinD1 cell cycle genes” value [4, 12]?
Its value is “general decrease, though not always significant”.

And the “effect on cell cycle distribution (in words)” value [5]?
The value was “doubled the percentage of G2/M cells”.

And the anchorage-dependent colony growth [6]?
The anchorage-dependent colony growth was “clearly inhibited cell growth when administered at lower concentrations than curcumin”.

What about the anchorage-dependent colony formation ([7]; PC3, 5 µM) of the same compound?
The anchorage-dependent colony formation was “quite completely abolished”.

What about the anchorage-dependent colony growth ([7]; PC3, 7 days, different doses) of the same compound?
The anchorage-dependent colony growth was “clearly inhibited cell growth when administered at lower concentrations than curcumin”.

What about the “decrease in colony formation, anchorage-independent” value [8] of the same compound?
The value was “up to 95%”.

What about the GI50 [9] of the same compound?
The GI50 was 8.6 µM.

What about the “Bcl-2 / Bcl-xl transcription” value [10] of the same compound?
The value was “Bcl-2, but not Bcl-xl, was weakly repressed”.

And the Noxa transcription [10]?
Its Noxa transcription is “induced”.

And the Puma transcription [10]?
Its Puma transcription is “increased exclusively following K3F21 administration”.

What about the “transcription of CDK inhibitors p21 and p27” value [10] of the same compound?
The value was “increased”.

And the “transcription of Cdc2, CyclinB1, CyclinB2, and CyclinD1 cell cycle genes” value [10, 12]?
The value was “general decrease, though not always significant”.

What about the “decrease in colony formation, anchorage-independent” value [11] of the same compound?
Its value is “up to 95%”.
